Data published in patent US9193746B2, “Luminescent metal complexes and associated technology” (BIOTIUM, INC., priority 2006, dated 2015).

Tested on: electrophoretically separated proteins (Precision Plus Protein Standard) in a SDS-PAGE gel
Experiment: Detection of electrophoretically separated proteins in a SDS-PAGE gel by luminescent staining
Details: for Staining of proteins in gel (yes/no): Example 18, FIG. 4: 1.5 μM complex, 30% MeOH, 14% acetic acid, room temperature, 90 minutes
Description: A gel preparation procedure is now described. Five μL of an unstained Precision Plus Protein Standard (Catalog No. 161-0363 from Bio-Rad Laboratories (Hercules, Calif.) (hereinafter, “Bio-Rad”)) were separated on the left column of a polyacrylamide pre-cast gel (Catalog No. 161-1176, a Ready Gel from Bio-Rad) in running buffer containing 20 mM glycine, 2.5 mM Tris and 0.1% SDS, using a standard SDS-PAGE procedure. Five 5 μL of the same standard diluted five times were separated on the right column of the polyacrylamide pre-cast gel under the same conditions.
The foregoing procedure was used to prepare one gel, which was further processed as described below using a particular staining solution. Separately, the same procedure was used to prepare another gel, which was further processed as described below using a different staining solution.
At the end of each of these periods, the gel was taken out of the solution, illuminated, and photographed, and if a further period remained, returned to the solution until the end of that further period. A UV transilluminator (300-nm wavelength) was used to illuminate the gel and Polaroid 667 black-and-white film was used to photograph the gel. The gel was not destained before being photographed.
A gel was prepared according to the gel preparation procedure described in connection with Example 15. The gel was then processed as now described. The gel was placed in a fixation solution comprising 50% MeOH and 7% acetic acid for 30 minutes to fix the gel. […] The gel was not destained before being photographed.
A gel was prepared according to the gel preparation procedure described in connection with Example 15. The gel was then processed as now described. The gel was placed in a fixation solution comprising 50% MeOH and 7% acetic acid for 1 hour to fix the gel. […] The gel was not destained before being photographed.
Three gels were prepared, each according to the gel preparation procedure described in connection with Example 15. One of the gels was stained using a staining solution comprising 1.5 μM of [Ru(bpy)3]Cl2 (Aldrich, Milwaukee, Wis.), wherein “bpy” is unsubstituted 2,2′-bipyridine, 30% MeOH and 14% acetic acid. Another of the gels was stained using a staining solution comprising 1.5 μM of [Ru(1,10-phenanthroline)3]Cl2 (Aldrich, Milwaukee, Wis.), 30% MeOH and 14% acetic acid. […] Each gel was stained by incubating it in the appropriate staining solution at room temperature for 90 minutes, whereupon each gel was taken out of the staining solution, illuminated and photographed in the manner described in connection with Example 15. No gel was destained before being photographed.

| Compound | Staining of proteins in gel (yes/no) (not destained) | Protein staining in gel (sensitivity, background) (Example 17, FIG. 3: fixed gel, 2 μM complex, 1% ethanol in H2O, overnight, not destained) | Protein staining compared with SYPRO Ruby stain (Example 17, FIG. 3 versus FIG. 1, without destaining) |
| --- | --- | --- | --- |
| [Cl][Ru][Cl].c1cnc2c(c1)ccc1cccnc12.c1cnc2c(c1)ccc1cccnc12.c1cnc2c(c1)ccc1cccnc12 [[Ru(1,10-phenanthroline)3]Cl2] | failed to stain proteins |  |  |
| Re[(bathocuproin disulfonate)(CO)3(4-phenylpyridine)]^−Na^+ [Complex No. 2] |  | good sensitivity and relatively low background | performing at least as well as, if not outperforming, SYPRO Ruby |
| [Cl][Ru][Cl].c1ccc(-c2ccccn2)nc1.c1ccc(-c2ccccn2)nc1.c1ccc(-c2ccccn2)nc1 [[Ru(bpy)3]Cl2] | failed to stain proteins |  |  |
